Biological target: T1, TDP1 (Homo sapiens, UniProt Q9NUW8)
T1 construct: made in house; host or cells: E. coli
Assay: Steady-state kinetics of the TDP1 reaction (Vmax, KM, type of inhibition)
Assay type: biochemical
Set-up: Vmax: unit not given here
Text: The reversible enzyme inhibitors were classified as competitive, uncompetitive, non-competitive, or mixed, depending on the binding of the enzyme, to the enzyme–substrate complex (ES) or to the enzyme–substrate–inhibitor triple complex (ESI). The enzyme could bind the inhibitor at the different steps of catalysis (before or after the substrate) and at the substrate-binding site or another site. The effect of the inhibitor on enzymatic activity can be analyzed using graphical representations of the Michaelis–Menten equation. […] TDP1 has a catalytic pocket with a narrow positively charged cleft where it binds DNA and with a relatively large cleft that contains a mixed charge distribution for the TOP1 fragment binding. It is known that TDP1 hydrolyzes the DNA–TOP1 adducts via two coordinated nucleophilic attacks of two His residues (His263 and His493) with the covalent intermediate complex formation. The enzyme reaction catalyzed by TDP1 could be inhibited in two steps: the first one is the inhibition of the TDP1 binding to the DNA substrate (the nucleophilic attack of His263). The second step is releasing TDP1 from the transition complex (nucleophilic attack by a water molecule activated by His493). Inhibition of the second step prevents the release of the DNA 3′-phosphate product from the DNA–TDP1 complex. Spinocerebellar ataxia with axonal neuropathy (SCAN1) is a neurological disease that is caused by a TDP1 His493Arg mutation. This mutation prevents the second step of hydrolysis of the intermediate complex and the enzyme remains covalently bound to DNA [47]. The uncompetitive inhibitors also prevent the second step of the reaction, stabilizing the enzyme–DNA covalent complex, which can lead to the accumulation of the single-strand breaks in the cell.
The biosensor (5′-[FAM] AAC GTC AGGGTC TTC C [BHQ]-3′) was synthesized in the Laboratory of Nucleic Acid Chemistry at the Institute of Chemical Biology and Fundamental Medicine (Novosibirsk, Russia) and was used for TDP1 enzyme activity real-time fluorescence detection. The reaction mixture (200 μL) contained a TDP1 reaction buffer (50 mM Tris-HCl, pH 8.0, 50 mM NaCl, and 7 mM β-mercaptoethanol), 50 nM oligonucleotide, varied concentrations of the tested compounds, and purified TDP1 in a final concentration 1.5 nM. The reaction mixtures were incubated at a constant temperature of 26 °C in a POLARstar OPTIMA fluorimeter (BMG LABTECH, GmbH, Ortenberg, Germany). Fluorescence intensity was measured (Ex485/Em520 nm) every 1 min for 10 min. The average values of the half maximal inhibitory concentration (IC50) were determined using an eleven-point concentration response curve and calculated using MARS Data Analysis 2.0 (BMG LABTECH). The 50% inhibitory concentration (IC50) was defined as the concentration of the compound that inhibited 50% of the enzyme activity when compared to the untreated controls. At least three independent experiments were carried out to obtain the IC50 values. To determine the kinetic parameters of the TDP1 enzymatic reaction, the apparent maximum rate of enzymatic reaction (Vmax), Michaelis constant (KM), possible inhibition mechanism, and steady-state kinetic experiments were carried out at 5 fixed concentrations of the substrate, with variation in the inhibitor concentrations. The standard reaction mixtures (200 μL) contained reaction buffer components; 50 nM, 100 nM, 200 nM, 500 nM, or 1000 nM substrate; an inhibitor; and 1.5 nM recombinant human TDP1. The initial kinetic curves were obtained in three independent experiments and statistically processed in OriginPro 8.6.0 (OriginLab, Northampton, MA, USA).
Table S25 Dependence of TDP1 reaction values V max and K M on the concentration of inhibitors
[7g], mM V max Standard Error K M Standard Error
[7h], mM V max Standard Error K M Standard Error
[10a], mM V max Standard Error K M Standard Error
[10b], mM V max Standard Error K M Standard Error

T1 sequence (Q9NUW8 whole entry): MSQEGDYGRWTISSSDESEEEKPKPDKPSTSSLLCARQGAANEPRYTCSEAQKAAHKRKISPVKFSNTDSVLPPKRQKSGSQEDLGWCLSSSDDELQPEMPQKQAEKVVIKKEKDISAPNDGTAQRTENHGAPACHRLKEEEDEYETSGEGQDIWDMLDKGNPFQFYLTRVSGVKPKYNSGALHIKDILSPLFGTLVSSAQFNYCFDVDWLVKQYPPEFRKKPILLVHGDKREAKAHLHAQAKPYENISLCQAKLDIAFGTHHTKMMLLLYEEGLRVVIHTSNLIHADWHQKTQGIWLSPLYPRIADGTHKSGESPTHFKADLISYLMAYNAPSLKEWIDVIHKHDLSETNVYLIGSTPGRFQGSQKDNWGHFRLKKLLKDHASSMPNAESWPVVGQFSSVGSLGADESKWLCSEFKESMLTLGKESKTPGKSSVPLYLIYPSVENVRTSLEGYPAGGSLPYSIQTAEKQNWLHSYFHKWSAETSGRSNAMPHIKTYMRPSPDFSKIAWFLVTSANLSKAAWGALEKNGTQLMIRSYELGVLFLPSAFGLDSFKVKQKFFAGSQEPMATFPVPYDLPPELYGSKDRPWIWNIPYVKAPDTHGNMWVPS

**Q.** Which results are given for `CC(=O)C1=C(O)C=C2Oc3c(C(=O)C[S+]([O-])c4nc5ccccc5s4)c(O)c(C)c(O)c3[C@@]2(C)C1=O` (stereo partly drawn) [10a, (2R)-4-acetyl-10-[2-(1,3-benzothiazole-2-sulfinyl)acetyl]-5,11,13-trihydroxy-2,12-dimethyl-8-oxatricyclo[7.4.0.0^2,7]trideca-1(13),4,6,9,11-pentaen-3-one]?
**A.** Vmax (inhibitor 0.8 mM (so in the source)): 27.8; Vmax (inhibitor 1.6 mM (so in the source)): 26.5; Vmax (inhibitor 3.2 mM (so in the source)): 25.1; Vmax (inhibitor 6.4 mM (so in the source)): 21.3; Type of inhibition of TDP1 enzyme reaction (steady-state conditions, fall in both Vmax and KM with increasing inhibitor): uncompetitive

Source: paper PMC8583042, “New Hybrid Compounds Combining Fragments of Usnic Acid and Thioether Are Inhibitors of Human Enzymes TDP1, TDP2 and PARP1” (International Journal of Molecular Sciences, 2021)
